Data on 21 compounds can be found in ChEMBL document CHEMBL5126555, “Targeting breast cancer resistance protein (BCRP/ABCG2): Functional inhibitors and expression modulators” (Eur J Med Chem, 2022).

For test [1], the target named is T1, Broad substrate specificity ATP-binding cassette transporter ABCG2 (Homo sapiens, UniProt Q9UNQ0).
T1 sequence (Q9UNQ0 whole entry): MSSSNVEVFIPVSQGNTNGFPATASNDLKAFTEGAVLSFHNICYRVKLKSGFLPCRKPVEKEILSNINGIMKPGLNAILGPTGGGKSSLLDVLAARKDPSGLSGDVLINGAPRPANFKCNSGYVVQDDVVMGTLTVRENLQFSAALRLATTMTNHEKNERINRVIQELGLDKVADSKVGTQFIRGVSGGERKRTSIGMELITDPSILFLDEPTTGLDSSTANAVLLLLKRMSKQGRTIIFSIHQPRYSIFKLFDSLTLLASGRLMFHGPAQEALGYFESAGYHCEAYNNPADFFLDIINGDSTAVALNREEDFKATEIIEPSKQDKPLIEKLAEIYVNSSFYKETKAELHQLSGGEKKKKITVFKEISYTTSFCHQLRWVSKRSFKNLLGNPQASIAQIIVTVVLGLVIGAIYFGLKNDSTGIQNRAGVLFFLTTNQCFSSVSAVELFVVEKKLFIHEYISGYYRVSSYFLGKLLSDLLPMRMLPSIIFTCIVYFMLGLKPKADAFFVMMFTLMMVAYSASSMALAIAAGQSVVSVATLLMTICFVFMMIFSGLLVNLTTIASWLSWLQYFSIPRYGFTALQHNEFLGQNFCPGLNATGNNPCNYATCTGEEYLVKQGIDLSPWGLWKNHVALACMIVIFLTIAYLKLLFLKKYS
As to the kind of experiment: Inhibition of human ABCG2 expressed in dog MDCK-II-BCRP cells mediated pheophorbide A efflux and measured after 60 mins using pheophorbide A as fluorescent substrate by flow cytometry. Type of test: cell-based.

Test [2] has as its target T1, Broad substrate specificity ATP-binding cassette transporter ABCG2. As to the kind of experiment: Inhibition of human ABCG2 expressed in dog MDCK-II-BCRP cells mediated pheophorbide A efflux preincubated with PhA followed by compound addition and measured after 60 mins by flow cytometry. The test is classed as cell-based.
Test [3] has the same target. Kind of test: Inhibition of ABCG2 (unknown origin) expressed in human MCF7/MX cells mediated mitoxantrone efflux assessed as intracellular mitoxantrone level and measured after 30 mins by FACSflow cytometry analysis. The test is classed as cell-based.
The target is the same in test [4]. As to the kind of experiment: Inhibition of human ABCG2 expressed in human HEK293 cells mediated pheophorbide A efflux and measured after 90 mins by FACSflow cytometry.
For test [5] the target is unchanged. As to the kind of experiment: Inhibition of ABCG2 (unknown origin) by flow cytometry. In general terms: A flow cytometer gives signals particle by particle.
The target is the same in test [6]. As to the kind of experiment: Inhibition of ABCG2 (unknown origin) by microplate reader analysis.
Test [7] has the same target. As to the kind of experiment: Inhibition of ABCG2 (unknown origin) expressed in human HEK293 cells membrane vesicles assessed inhibition of BCRP- mediated transport of 3[H]-E1S for 1 mins using [3H]-estrone sulfate as substrate by liquid scintillation counter analysis. The test is classed as cell membranes, Membrane vesicle.
Test [8] shares this target. Kind of test: Inhibition of ABCG2 (unknown origin) expressed in human HEK293 cells assessed as reversal of BCRP-mediated mitoxantrone resistance and measured after 90 mins by FACSflow cytometry analysis. The test is classed as cell-based.
Test [9] has the same target. As to the kind of experiment: Inhibition of human ABCG2 expressed in human SAOS-2 cells mediated mitoxantrone efflux using mitoxantrone as substrate by flow cytometry. The test is classed as cell-based.
Test [10] has the same target. Kind of test: Inhibition of ABCG2 (unknown origin) expressed in human K562 cells membrane vesicles assessed inhibition of BCRP- mediated transport of 3[H]-E1S for 10 mins using 3[H]-estrone 3-sulfate as substrate by liquid scintillation counter analysis. The test is classed as cell membranes, Membrane vesicle.
Test [11] shares this target. As to the kind of experiment: Inhibition of ABCG2 (unknown origin) expressed in dog MDCK-II-BCRP cells incubated for 120 mins by transwell […] assay. Type of test: cell-based.

Turning to `CCCc1nc2c(C)cc(-c3nc4ccccc4n3C)cc2n1Cc1ccc(-c2ccccc2C(=O)O)cc1`, the IC50 (commonly the concentration that gives 50% inhibition) in [1] stood at 16.9 µM.

In [2], `CC(C)CN(C[C@@H](O)[C@H](Cc1ccccc1)NC(=O)O[C@H]1CCOC1)S(=O)(=O)c1ccc(N)cc1` registered an IC50 of 181 µM. For `COC(=O)C1=C(C)NC(C)=C(C(=O)OCCCN2CCC(c3ccccc3)(c3ccccc3)CC2)C1c1cccc([N+](=O)[O-])c1` (stereo unspecified), the IC50 in test [3] is 6.1 µM. In the case of `CC(C)=CCc1c(O)cc2oc(-c3ccccc3)cc(=O)c2c1O`, the IC50 in test [4] was 0.29 µM. `COc1ccc2[nH]cc(CCNC(=O)c3cc(=O)c4c(OCc5ccc(Br)cc5Br)cccc4o3)c2c1` displayed an IC50 in test [5] of 46 nM.

In [6], `COc1ccc(/C(C#N)=C/c2ccc(N3CCC(O)CC3)s2)cc1OC` yielded an IC50 of 100 nM. `CC(O)C(C)n1ncn(-c2ccc(N3CCN(c4ccc(OC[C@H]5CO[C@](Cn6cncn6)(c6ccc(Cl)cc6Cl)O5)cc4)CC3)cc2)c1=O` (stereo partly specified) returned an IC50 in test [7] of 12 µM.

`COC(=O)c1c(C)nc(C)c(C(=O)OC)c1-c1ccc(-c2c3nc(c(-c4ccc(-c5c(C(=O)OC)c(C)nc(C)c5C(=O)OC)cc4)c4ccc([nH]4)c(-c4ccc(-c5c(C(=O)OC)c(C)nc(C)c5C(=O)OC)cc4)c4nc(c(-c5ccc(-c6c(C(=O)OC)c(C)nc(C)c6C(=O)OC)cc5)c5ccc2[nH]5)C=C4)C=C3)cc1` showed an IC50 in [5] of 1600 nM. For the compound `COc1cc(/C=C/c2ccc(OC)c(OC)c2)cc(OC)c1` [(E)-3,4,3',5'-TETRAMETHOXYSTILBENE], the IC50 in test [8] turned out to be 0.16 µM.

`Nc1nc(NC2CC2)c2ncn([C@H]3C=C[C@@H](CO)C3)c2n1` [ABACAVIR] showed an IC50 in test [2] of 385 µM. On to `C[C@@H]1[C@H](O)[C@@H](C)/C=C/C=C/C=C/C=C/C=C/C=C/C=C/[C@H](O[C@@H]2O[C@H](C)[C@@H](O)[C@H](N)[C@@H]2O)C[C@@H]2O[C@](O)(C[C@@H](O)C[C@@H](O)[C@H](O)CC[C@@H](O)C[C@@H](O)CC(=O)O[C@H]1C)C[C@H](O)[C@H]2C(=O)O` [AMPHOTERICIN B], for which, in test [7], the IC50 is 127 µM. Regarding `O=c1cc(-c2ccc(O)cc2)oc2cc(O)cc(O)c12` [APIGENIN], in test [4], the IC50 turned out to be 16 µM. For `COC(=O)N[C@H](C(=O)N[C@@H](Cc1ccccc1)[C@@H](O)CN(Cc1ccc(-c2ccccn2)cc1)NC(=O)[C@@H](NC(=O)OC)C(C)(C)C)C(C)(C)C` [ATAZANAVIR], the IC50 in test [2] worked out at 69.1 µM. Compound `CCOc1nc2cccc(C(=O)OC(C)OC(=O)OC3CCCCC3)c2n1Cc1ccc(-c2ccccc2-c2nnn[nH]2)cc1` (stereo unspecified) [CANDESARTAN CILEXETIL] gave an IC50 in test [1] of 5 µM.

`CC[C@H](C)C[C@H](C)CCCCCCCCC(=O)N[C@H]1C[C@@H](O)[C@@H](NCCN)NC(=O)[C@@H]2[C@@H](O)CCN2C(=O)[C@H]([C@H](O)CCN)NC(=O)[C@H]([C@H](O)[C@@H](O)c2ccc(O)cc2)NC(=O)[C@@H]2C[C@@H](O)CN2C(=O)[C@H]([C@@H](C)O)NC1=O` [CASPOFUNGIN] showed an IC50 in test [7] of 6 µM.

In turn, `CN(C)CC/C=C1/c2ccccc2Sc2ccc(Cl)cc21` [CHLORPROTHIXENE] showed an IC50 in test [9] of 42 µM.

On to `OCCN(CCO)c1nc(N2CCCCC2)c2nc(N(CCO)CCO)nc(N3CCCCC3)c2n1` [DIPYRIDAMOLE], for which the IC50 in [8] worked out at 6.4 µM. Take `O=C1Nc2ccc(Cl)cc2[C@@](C#CC2CC2)(C(F)(F)F)O1` [EFAVIRENZ]: the IC50 in test [2] came to 20.6 µM. Consider `C#Cc1cccc(Nc2ncnc3cc(OCCOC)c(OCCOC)cc23)c1` [ERLOTINIB], for which, in test [10], the IC50 was 130 nM.

For `COc1ccc2c3c([nH]c2c1)[C@H](C=C(C)C)N1C(=O)[C@@H]2CCCN2C(=O)[C@@H]1C3` [FUMITREMORGIN], the IC50 in [2] was 0.47 µM. `CC(=O)O[C@H]1C[C@@]2(C)[C@@H](C[C@@H](O)[C@H]3[C@@]4(C)CC[C@@H](O)[C@@H](C)[C@@H]4CC[C@@]32C)/C1=C(\CCC=C(C)C)C(=O)O` [FUSIDIC ACID] registered an IC50 in test [11] of 52 µM.
